Biological target: T1, Ech (enoyl-CoA hydratase/aldolase) (Streptomyces sp. V-1, UniProt S5LPF1)
T1 construct: ATCC 39116
T1 sequence (S5LPF1 1-287): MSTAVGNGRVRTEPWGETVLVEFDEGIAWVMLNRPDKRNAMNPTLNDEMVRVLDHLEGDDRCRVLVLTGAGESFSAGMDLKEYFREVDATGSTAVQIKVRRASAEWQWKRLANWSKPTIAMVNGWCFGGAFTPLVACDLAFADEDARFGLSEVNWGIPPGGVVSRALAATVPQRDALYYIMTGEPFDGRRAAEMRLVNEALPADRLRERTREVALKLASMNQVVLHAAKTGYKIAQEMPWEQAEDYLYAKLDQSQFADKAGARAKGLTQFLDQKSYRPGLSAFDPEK
Assay: coupled assay with purified Fcs, GC analysis (qualitative)
Type: biochemical
Details: feruloyl-CoA made in situ from 0.7 mM ferulic acid by Fcs; 2 mM ATP, 0.4 mM CoA, 2.5 mM MgCl2, 100 mM potassium phosphate pH 7.0

## COc1cc(C=O)ccc1O [vanillin, 4-hydroxy-3-methoxybenzaldehyde]
  coupled assay with purified Fcs, GC analysis (qualitative): production of vanillin, catalyzed by Ech, were observed and analyzed qualitatively from the GC spectrum
